According to patent US20100075993A1, “SMALL MOLECULE INHIBITORS AGAINST WEST NILE VIRUS REPLICATION” (DREXEL UNIVERSITY, priority 2005, published 2010):

Columns and labels:
WNV RNA = assay: Northern blot of WNV RNA in compound treated replicon cells; format: cell-based, West Nile virus; details: for WNV RNA replication / RNA level (northern blot): 10 μM, 48 hours; for WNV RNA reduction: 48-hour treatment, compounds 10 μM
Protocol: FIG. 6 is a picture of a Northern blot gel of compound treated WNV replicon cells. 4×10^4 cells were seeded in 24 well plates. After 24 hours, the cells were treated with DMSO (lanes 2, 3) or the non-specific inhibitors, MPA (lane 1) or the compounds […] (lane 4), 18-B3 (lane 5) or 52-F2 (lane 6). After 48 hours, total RNA were isolated, separated on denaturing agrose gels and transferred to nylon membrane. Total RNA from a non-replicon cell (Huh-7 cell) was loaded in lane 7 as negative control. The membrane was probed with [^32P]-dCTP-labeled WNV NS5 and human beta-actin. The signal was quantified using a BioRad phosphoimager and WNV RNA level was calculated using beta-actin as a reference.
To confirm that the compounds can indeed inhibit WNV RNA replication, the WNV RNA level in the replicon cells treated with compounds by Northern blot analysis. Several hit compounds, 18-B3, 275-F9, 275-D9, 52-F2 and MPA were selected to treat the BHK 26.5 cells at 10 μM. […] The “hit” compounds 18-B3 and 275-F9 reduced WNV RNA by 1.5 and 2 fold, respectively (FIG. 6, lanes 4, 5). 18-B3 is one of the nine compounds that have similar structures while 275-F9 is one from another class of four compounds (Table 3).
Total cellular RNA was extracted by using the RNEASY kit (Qiagen NV, Netherlands). Northern blot analysis was done according to the protocol of Gu et al. 2002 (8). Briefly, 5 μg total RNA was electrophoresed through a 1.0% agarose gel containing 2.2M formaldehyde, transferred to a nylon membrane and immobilized by UV cross-linking (Stratagene, La Jolla, Calif.). After pre-hybridization in 5 ml of QuickHyb (Amersham, Piscataway, N.J. GE Healthcare, Giles, UK), [2P] dCTP-labeled probe made by random primer labeling of a 2.7 kb NS5 DNA fragment and a human beta-actin DNA at 65° C. The membrane was washed twice in 2×SSC/0.1% SDS for 10 min at room temperature and twice in 0.1×SSC/0.1% SDS for 15 min at 68° C. Membranes were exposed to Molecular Imager FX phosphoimager (BioRad, Hercules, Calif.) and the radiographic signals were collected and quantitated.

BHK 26.5 replicon cells = assay: MTT toxicity assay on BHK 26.5 replicon cells; format: cell-based; details: MTT assay
Text: The HTS strategy follows the flowchart outlined in FIG. 2. 35,000 compounds were screened from a chemical library described below, using a cutoff of 50% reduction in luminescence readout as the criteria for further study. Upon completion of the screen, approximately 1100 compounds were selected, making the hit rate of 3%. This is considerably higher than expected, implying many false positive and/or cytotoxic compounds. Nevertheless, the compounds were picked out from the “daughter” plates and re-checked at a single 10 μM concentration. In addition, a duplicate 96 well plates were also plated and the toxicity of the compounds was determined in an MTT assay. Upon completion of these assays, most compounds were disqualified as either false positives or being toxicity to cells. As a result, only a small number of compounds were further analyzed directly from the “mother” plate stock. After IC50 determination and secondary assay to rule out luciferase inhibitors, 23 “hits” were identified.
(§1) Replicon-harboring cells were plated 96-well plates at 10,000 cells per well in MEM plus 3% FBS. 24 hours after plating, compounds were added to the wells by a Robotic liquid handler (Biomek NX) to a final concentration of 10 μM and 1% DMSO. For each 96 well plate, A1 to A8 were left open, H1 to H4 contained 1% DMSO, H5-H8 contained Mycophenolic acid (Sigma-Aldrich, St. Louis, Mo.), which was included as positive controls. After 24 hours of treatment, the media were removed and the luciferase activity expressed in the replicon cells was quantified. When cyto-toxicity was measured, duplicate 96 well plates were plated with BHK 26.5 replicon cells. One plate was used for luciferase assay and one plate was used for measuring toxicity using MTT assay.
(§2) Compound toxicity was determined by MTT assay. For the MTT assay, the cell medium was removed and the monolayers were incubated with 100 μl/well of 0.5 mg/ml MTT for 6 h at 37° C. The MTT solution was then aspirated and 100 μl/well of the 10% SDS (in 0.01N HCl) was added, followed by spectrophotometric quantitation (570 nm) of the insoluble MIT reaction product.

WNV replicon = WNV replicon luciferase assay in BHK 26.5 cells (HTS, re-test, IC50); format: cell-based, West Nile virus; details: for IC50: West Nile virus, 24 h; for Fold decrease (HTS) / Fold decrease (Re-test): luciferase activity; for Fold decrease (HTS): 10 μM compound, 24 hours, BHK 26.5 cells; for Fold decrease (Re-test): re-checked at a single 10 μM concentration
Protocol: Ten micromolar concentrations of a selected compound were incubated with BHK 26.5 cells expressing luciferase whose activity is dependent upon WNV replicon replication (FIG. 1A). Primary “hits” were defined by the ability to reduce the amount of luciferase enzyme activity by more than 50%, compared to controls.
To quantify and rank the activity of the 23 remaining compound “hits”, a serial dilution of each compound was incubated with WNV replicon cells to determine the concentration that inhibits 50% of the luciferase readout (IC50s). […] A number of compounds had significant effect only at the highest, 10 μM concentration. However, several compounds had IC50s between 2 and 5 (Table 3), which is very reasonable for primary HTS hits from a compound library. Only a few compounds could cause 90% inhibition in the replicon cells at the concentrations tested.
as §1
Luciferase assay was performed by using the STEADY GLO reagent (Promega Corp. Madison, Wis.) according to the manufacturer's recommendation with slight modifications. Briefly, the culture media from the 96 wells were removed by dumping on paper towels.
100 μl of a 1:1 mixture of luciferase regent and culture media were added to the plate. After 5-minute incubation, the luminescence was read on a TOPCOUNT (PerkinElmer, Wellesley, Mass.).

WNV NS3 protein = assay: Western blot of WNV protein in compound treated replicon cells; format: cell-based, West Nile virus; details: 48-hour treatment, up to 10 uM; MPA 2.5 ug/ml
Protocol: Mycophenolic acid (MPA) was used as positive control in the experiment. 4×10^4 cells were seeded in 24 well plates 24 hours before the various concentrations of compounds were added. After 48 hours of drug treatment, SDS-Sample buffer were added to the wells to lyse the cells. The protein samples were separated on SDS-PAGE and transferred to PVDF membrane. Viral protein was detected by probing with a monoclonal antibody against WNV. The same membrane was stripped and probed for beta-actin with the signals shown at the bottom of the blot.
Although it is reassuring that multiple tests have yielded similar positive results, the ability of the compounds to inhibit WNV replication was further assessed in secondary assays. In the western blot analysis shown in FIG. 5, total cell proteins were prepared from WNV replicon cells treated with the hit compounds and the viral protein NS3 was detected with a monoclonal […] against West Nile virus (15). The same blots were stripped and probed for beta-actin to show equal loading. […] When compared with the IC50 determined for these compounds in the luciferase assay, there was a good correlation between the luciferase reduction and the viral protein reduction.
Total cell lysates from replicon cells were harvested from replicon cells in 1×SDS sample buffer. The lysates were heated at 70° C. for 10 min in the presence of DTT before electrophoresis on a 10% Tris-glycine SDS polyacrylamide gel (Invitrogen) in 1× Tris-glycine buffer. The protein was transferred to PVDF (Invitrogen) membrane. Following the transfer, the membrane was rinsed once with TBS containing 0.5% Tween-20 (TBS-Tween) and blocked in TBS-Tween containing 5% non-fat milk for 1 h. After washing with PBS-Tween, the membrane was incubated with the primary WNV antibody (15) at 1:3000 dilutions for 1 h at 25° C. Prior to incubation with HRP conjugated-mouset IgG secondary antibody (Amersham, Life Science, Piscataway, N.J.) diluted 1:5000, the blot was washed in PBS-Tween. Following the secondary antibody incubation, the blot was washed again and treated with Super Signal Chemiluminescent Reagent (Pierce) according to the manufacturer's protocol and exposed to X-ray film. For controls, the blots were stripped and re-probed with an antibody to beta-actin (Chemicon), which was detected with a goat anti-mouse horseradish peroxidase conjugate.

BHK cells = assay: toxicity (MTT, CC50) in BHK cells parallel to WNV infection assay; format: cell-based; details: 20 μM, parallel toxicity assessment
Protocol: Several of these original compounds selected from the WNV replicon based screen were evaluated in an antiviral assay against WNV live virus. […] Modifications of this compound would be further investigated
The toxicity of 101-G7 was also measured by MTT assay and CC50 was calculated. 40 μM is highest concentration used.
as §2

WNV = WNV yield reduction assay (live virus) on BHK cells; format: cell-based, West Nile virus
Protocol: The antiviral assay for the 309-F6 compounds was conducted on BHK cells. The virus produced in the presence of 1% DMSO or various concentrations of compounds was tittered on Vero cells. The amount of virus relative to the 1% DMSO control was plotted on the y-axis; the concentration of the compound 309F6 is shown in μM on the x-axis. Data from two independently treated wells (Test 1 and Test 2) are shown.
To measure activity against live WNV, BHK cells were plated in 96-well plates at a concentration of 12,000 cells/well. One day later the cells were infected with WNV for 1 h at an MOI of 0.05. The cells were then washed once and re-fed with fresh DMEM containing dilutions of the test compound. Plates were then incubated at 37° C. for 48 h, the supernatant collected and the WNV produced titered. For virus titration, Vero cells were plated in 96-well plates at 8000 cells/well and incubated overnight. The Vero cell monolayer were then infected for 1 h with various dilutions of the WNV supernatant, overlaid with media containing 0.6% tragacanth (ICN, CA) and incubated at 37° C. for 48 h. The culture media was then aspirated; the plate was rinsed, air-dried, and fixed with 50 μl/well acetone/methanol (50:50). Viral foci were detected for enumeration by immunostaining as described previously (15).

Row | SMILES | WNV RNA replication / RNA level (northern blot) (WNV RNA) | WNV RNA reduction (WNV RNA) [fold] | Toxicity (uM)* (BHK 26.5 replicon cells) [µM] | IC50 (WNV replicon) [µM] | Fold decrease (HTS) (WNV replicon) [Fold] | Fold decrease (Re-test) (WNV replicon) [Fold] | WNV NS3 protein level (western blot) (WNV NS3 protein) | cell toxicity (BHK cells) | WNV titer reduced (WNV; 20 μM, BHK cells, titered on Vero cells) | selective index (WNV; estimated) | activity in the WNV infection assay (WNV; live WNV)
1 | COc1ccc(-n2nc3c(c2NC(=O)c2cccs2)CSC3)cc1 [Compound 18-B3, Thiophene-2-carboxylic acid [2-(4-methoxy-phenyl)-2,6-dihydro-4H-thieno[3,4-c]pyrazol-3-yl]-amide] | clearly inhibited the WNV RNA replication | 1.5 | >30 | 5 | 3 | 2 |  |  |  |  | 
2 | COc1ccc(-n2nc3c(c2NC(=O)c2ccc(S(=O)(=O)N4CCCCC4)cc2)CSC3)cc1 [Compound 18-D2, N-[2-(4-Methoxy-phenyl)-2,6-dihydro-4H-thieno[3,4-c]pyrazol-3-yl]-4-(piperidine-1-sulfonyl)-benzamide] |  |  | >30 | 7.5 | 3 | 2.8 | dose dependency is also clearly seen |  |  |  | 
3 | Cc1nc2c(C(=O)NCCC3=CCCCC3)cnn2c(O)c1Cc1ccccc1Cl [Compound 275-F9, 6-(2-Chloro-benzyl)-7-hydroxy-5-methyl-pyrazolo[1,5-a]pyrimidine-3-carboxylic acid (2-cyclohex-1-enyl-ethyl)-amide] | clearly capable of reducing the WNV RNA level | 2 | >10 | 7.5 | 27 | 4.5 |  |  |  |  | 
4 | CCN(CCNC(=O)c1cnn2c(O)c(Cc3ccccc3F)c(C)nc12)c1ccccc1 [Compound 309-F6, 6-(2-Fluoro-benzyl)-7-hydroxy-5-methyl-pyrazolo[1,5-a]pyrimidine-3-carboxylic acid [2-(ethyl-phenyl-amino)-ethyl]-amide] |  |  | >10 | 10 | 7 | 6 | reduced viral protein only at the 10 uM | only slight cell toxicity | approximately 90% | more than 8 | inhibited WNV production
5 | Cc1ccc(CCNC(=O)c2cnn3c(O)c(Cc4ccccc4F)c(C)nc23)cc1 [Compound 310-B3, 6-(2-Fluoro-benzyl)-7-hydroxy-5-methyl-pyrazolo[1,5-a]pyrimidine-3-carboxylic acid (2-p-tolyl-ethyl)-amide] |  |  | >10 | 10 | 17 | 4 | reduced viral protein only at the 10 uM |  |  |  | 
6 | COc1ccc(CC(=O)Nc2ccc(C(=N)NO)cc2)cc1 [Compound 331-D11, N-[4-(N-Hydroxycarbamimidoyl)-phenyl]-2-(4-methoxy-phenyl)-acetamide] |  |  | >30 | 5 | 4 | 2 | dose dependency is also clearly seen |  |  |  | 
